The nature of this data set: logP determination by HPLC on a reversed-phase column (C 18), EEC Directive 79/831 Annex V.A8. Format: physicochemical. The note with it: HPLC reversed-phase C 18, 40° C., 0.1% aqueous formic acid and acetonitrile, gradient 10% to 90% acetonitrile. The protocol:
In the table 1, the logP values were determined in accordance with EEC Directive 79/831 Annex V.A8 by HPLC (High Performance Liquid Chromatography) on a reversed-phase column (C 18), using the method described below: Temperature: 40° C.; Mobile phases: 0.1% aqueous formic acid and acetonitrile; linear gradient from 10% acetonitrile to 90% acetonitrile. Calibration was carried out using unbranched alkan-2-ones (comprising 3 to 16 carbon atoms) with known logP values (determination of the logP values by the retention times using linear interpolation between two successive alkanones).

We go through 2 compounds from patent US8841332B2, “Fungicidal N-(2-phenoxyethyl)carboxamide derivatives and their aza, thia and sila analogues” (Bayer Intellectual Property GmbH, priority 2008, dated 2014).

The logP is a log measure of how a compound divides between an organic and an aqueous phase. A high value points to a more lipophilic compound.

Turning to `CC(COc1ccc(Cl)cc1Cl)N(C(=O)c1cn(C)nc1I)C1CC1` (centres unmarked) [Example 19], the logP amounted to 3.78.
The value for `Cn1cc(C(=O)N(CCOc2c(Cl)cc(Cl)cc2Cl)C2CCCC2)c(C(F)F)n1` [Example 24] was 4.72.
